Experimental data reported in ChEMBL document CHEMBL3085678, “3-Azatetracyclo[5.2.1.1(5,8).0(1,5)]undecane derivatives: from wild-type inhibitors of the M2 ion channel of influenza A virus to derivatives with potent activity against the V27A mutant” (J Med Chem, 2013).
Active and inactive are the calls of the source. The rule behind the calls is not given here.

Columns and labels:
[1] = Cytotoxicity against MDCK cells assessed as minimum cytotoxic concentration after 24 hrs by MTS assay; assay type: cell-based, Canis lupus familiaris; details: dog
[2] = Cytotoxicity against MDCK cells assessed as minimum cytotoxic concentration after 72 hrs by MTS assay; assay type: cell-based, Canis lupus familiaris; details: dog
MDCK = test: Cytotoxicity against MDCK cells after 72 hrs by MTS assay; assay type: cell-based, Canis lupus familiaris; details: dog
Coxsackievirus B4 = test: Antiviral activity against Coxsackievirus B4; assay type: functional, organism-based
[3] = tested on: Mammalian orthoreovirus 1; test: Antiviral activity against Reovirus-1; assay type: functional, organism-based
Punta Toro virus = test: Antiviral activity against Punta Toro virus; assay type: functional, organism-based
[4] = tested on: Vesicular stomatitis virus; test: Antiviral activity against Vesicular stomatitis virus; assay type: functional, organism-based
Sindbis virus = test: Antiviral activity against Sindbis virus; assay type: functional, organism-based
[5] = tested on: Respiratory syncytial virus; test: Antiviral activity against Respiratory syncytial virus; assay type: functional, organism-based
Human respirovirus 3 = test: Antiviral activity against Parainfluenza-3 virus; assay type: functional, organism-based
Vaccinia virus = test: Antiviral activity against Vaccinia virus; assay type: functional, organism-based; details: Orthopoxvirus vaccinia
Feline coronavirus = test: Antiviral activity against Feline coronavirus; assay type: functional, organism-based
Human alphaherpesvirus 2 = test: Antiviral activity against Herpes simplex virus type 2; assay type: functional, organism-based
Human alphaherpesvirus 1 = test: Antiviral activity against Herpes simplex virus type 1; assay type: functional, organism-based
[6] = tested on: Influenza A virus (A/udorn/1972(H3N2)); assay type: cell membranes; details: 100 uM
[7] = Inhibition of Influenza A virus M2 ion channel by two-electrode voltage clamp assay

| SMILES | MCC at 24 h [1] | MCC at 72 h [2] | CC50 (MDCK) | Activity (Coxsackievirus B4) | Activity [3] | Activity (Punta Toro virus) | Activity [4] | Activity (Sindbis virus) | Activity [5] | Activity (Human respirovirus 3) | Activity (Vaccinia virus) | Activity (Feline coronavirus) | Activity (Human alphaherpesvirus 2) | Activity (Human alphaherpesvirus 1) | inhibition [6] | IC50 [7] |
| --- | --- | --- | --- | --- | --- | --- | --- | --- | --- | --- | --- | --- | --- | --- | --- | --- |
| N=C(N)N1CC23CC4CC2(CC4C3)C1 | > 50 µM | 8.5 µM | 10 µM | inactive | inactive | inactive | inactive | inactive | inactive | inactive | inactive | inactive | inactive | inactive | 95.7% |  |
| NC(=O)c1ncn([C@@H]2O[C@H](CO)[C@@H](O)[C@H]2O)n1 [RIBAVIRIN] | > 100 µM |  |  |  |  |  |  |  |  |  |  |  |  |  |  |  |
| CC12CC3CC1(C)CC3(N)C2 |  |  |  | inactive | inactive | inactive | inactive | inactive | inactive | inactive | inactive | inactive | inactive | inactive | 93.6% |  |
| CCC12CC34CNCC3(C1)CC2(CC)C4 |  | 20 µM | 49 µM | inactive | inactive | inactive | inactive | inactive | inactive | inactive | inactive | inactive | inactive | inactive | 65% |  |
| NC12C3CCC4C3C3C(CCC31)C42 |  |  |  | inactive | inactive | inactive | inactive | inactive | inactive | inactive | inactive | inactive | inactive | inactive | 4.8% |  |
| Oc1ccc(CNC23CC4CC(CC(C4)C2)C3)c(O)c1 |  |  |  |  |  |  |  |  |  |  |  |  |  |  |  | 59 µM |
| CC12CC34CNCC3(C1)CC2(C)C4 |  | 100 µM | 59 µM | inactive | inactive | inactive | inactive | inactive | inactive | inactive | inactive | inactive | inactive | inactive | 93.8% |  |
| CC12CC3CC1(C)CC3(CN)C2 |  |  |  | inactive | inactive | inactive | inactive | inactive | inactive | inactive | inactive | inactive | inactive | inactive | 97.3% |  |
| CC(N)C12CC3CC(CC(C3)C1)C2 (configuration not stated) [RIMANTADINE] | ≥ 500 µM | 500 µM | 203 µM |  |  |  |  |  |  |  |  |  |  |  |  |  |
| C1=CC2C3C4C5C=CC4C24CNCC54C13 |  |  |  | inactive | inactive | inactive | inactive | inactive | inactive | inactive | inactive | inactive | inactive | inactive |  |  |
| NC1CCC2(CC1)C1CC3CC(C1)CC2C3 (configuration not stated) |  |  |  |  |  |  |  |  |  |  |  |  |  |  |  | 19 µM |
| C1CCC23CC45CNCC4(CC2(C1)C5)C3 | > 50 µM | 4 µM | 6.8 µM | inactive | inactive | inactive | inactive | inactive | inactive | inactive | inactive | inactive | inactive | inactive | 85.3% |  |
| N=C(N)N1CC23CC45CCCCC4(C2)CC3(C1)C5 | ≥ 10 µM | 4 µM | 3.1 µM | inactive | inactive | inactive | inactive | inactive | inactive | inactive | inactive | inactive | inactive | inactive | 93.1% |  |
| c1csc(-c2cc(CNC34CC5CC(CC(C5)C3)C4)no2)c1 |  |  |  |  |  |  |  |  |  |  |  |  |  |  |  | > 100 µM |
| C1NCC23CC4CC12CC4C3 |  | 100 µM | ≥ 59 µM | inactive | inactive | inactive | inactive | inactive | inactive | inactive | inactive | inactive | inactive | inactive | 93.9% |  |
| NCC12C3CCC4C3C3C(CCC31)C42 |  |  |  | inactive | inactive | inactive | inactive | inactive | inactive | inactive | inactive | inactive | inactive | inactive | 12.8% |  |
| NC12CC3CC(CC(C3)C1)C2 [AMANTADINE] | ≥ 500 µM | > 500 µM | > 500 µM |  |  |  |  |  |  |  |  |  |  |  | 91% |  |
| C1C2C1C1C3C4C5C6CC6C4C14CNCC54C23 (configuration not stated) |  |  |  | inactive | inactive | inactive | inactive | inactive | inactive | inactive | inactive | inactive | inactive | inactive | 86.5% |  |
| CN1CC23CC4(C)CC2(C1)CC4(C)C3 |  | ≥ 20 µM | 49 µM | inactive | inactive | inactive | inactive | inactive | inactive | inactive | inactive | inactive | inactive | inactive | 87.9% |  |
| CC12CC34CN(C(=N)N)CC3(C1)CC2(C)C4 | > 50 µM | 4 µM | 1.4 µM | inactive | inactive | inactive | inactive | inactive | inactive | inactive | inactive | inactive | inactive | inactive | 92.4% |  |
| CCC12CC34CN(C(=N)N)CC3(C1)CC2(CC)C4 |  | 4 µM | 6.2 µM | inactive | inactive | inactive | inactive | inactive | inactive | inactive | inactive | inactive | inactive | inactive | 42.8% |  |
| CN1CC23CC4CC2(CC4C3)C1 |  | ≥ 100 µM | > 100 µM | inactive | inactive | inactive | inactive | inactive | inactive | inactive | inactive | inactive | inactive | inactive | 88.3% |  |
| NC1CC[Si]2(CCCCC2)CC1 |  |  |  |  |  |  |  |  |  |  |  |  |  |  |  | 14 µM |
